Results as given in BindingDB's records for doi:10.1016/j.ab.2009.08.013 (Novartis Institute For Tropical Diseases, 2009).
Non-standard residues stand in square brackets, D forms with d. Residues, ends and D or L forms follow the SMILES beside them. *: point of attachment. Nle = CCCC[C@H](N)C(=O)O; Bz = O=C(c1ccccc1)*

What was measured:
[1] = molecular target: T1, Genome polyprotein [1066-1250,R1182K]/[1394-1440,K1405R,D1408E] (dengue virus type 2, UniProt P14340+P27914, D1408E/K1405R/R1182K); assay: Enzyme Inhibition Assay; conditions: pH 7.5; 37 °C
T1 construct: 1066-1250; 1394-1440
Protocol: (§1) Inhibitors were assayed in a 96-well plate format. […] The reaction was initiated by the addition of substrate Bz-nKRR-AMC. Reaction progress was monitored continuously by following the increase in fluorescence on a Tecan Safire2 plate reader. IC50 values of inhibitors were derived by fitting the calculated initial velocities to a nonlinear regression curve using GraphPad Prism software. Each point of the IC50 curve was measured in duplicate during a single experiment.

[2] = molecular target: T2, Genome polyprotein [1394-1440]/[1476-1660] (dengue virus type 4, UniProt Q58HT7); assay: Enzyme Inhibition Assay
T2 construct: 1394-1440; 1476-1660
Protocol: as §1

[3] = molecular target: T3, Genome polyprotein [1394-1440]/[1476-1660,T1585M] (dengue virus type 3, UniProt P27915+Q6YMS4, T1585M); assay: Enzyme Inhibition Assay
T3 construct: 1394-1440; 1476-1660
Protocol: as §1

[4] = molecular target: T4, Genome polyprotein [1393-1439,E1407V]/[1476-1660,R1508K,A1566M] (dengue virus type 1, UniProt P17763+P33478, A1566M/E1407V/R1508K); assay: Enzyme Inhibition Assay; conditions: pH 7.5; 37 °C
T4 construct: 1393-1439; 1476-1660
Protocol: as §1

[5] = molecular target: T1, Genome polyprotein [1066-1250,R1182K]/[1394-1440,K1405R,D1408E]; assay: Enzyme Inhibition Assay (IC50) and Fluorescence Quench Assay (KD); conditions: pH 7.5; 37 °C
Protocol: (§2) Inhibitors were assayed in a 96-well plate format. […] The reaction was initiated by the addition of substrate Bz-nKRR-AMC. Reaction progress was monitored continuously by following the increase in fluorescence on a Tecan Safire2 plate reader. IC50 values of inhibitors were derived by fitting the calculated initial velocities to a nonlinear regression curve using GraphPad Prism software. Each point of the IC50 curve was measured in duplicate during a single experiment. Compounds were tested for binding (KD) using fluorescence quench assay. Two protein solutions were prepared (2-5 uM protein with and without 40 uM compound) and were mixed in a microplate to obtain 12 different compound concentrations ranging from 0 to 40 uM. Then each dilution comprising 90 ul was transferred to a UV-Star 96-well microplate. […] Binding curves were analyzed according to the two-state model describing the formation of a 1:1 complex. Kd values were obtained from curve-fit of binding isotherms.

[6] = molecular target: T5, Genome polyprotein [1424-1463]/[1502-1685] (West Nile virus, UniProt P06935); assay: as above; conditions: pH 7.5; 37 °C
T5 construct: 1424-1463; 1502-1685
T5 sequence (P06935 whole entry) 1: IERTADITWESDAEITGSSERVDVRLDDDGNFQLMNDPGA
T5 sequence (P06935 whole entry) 2: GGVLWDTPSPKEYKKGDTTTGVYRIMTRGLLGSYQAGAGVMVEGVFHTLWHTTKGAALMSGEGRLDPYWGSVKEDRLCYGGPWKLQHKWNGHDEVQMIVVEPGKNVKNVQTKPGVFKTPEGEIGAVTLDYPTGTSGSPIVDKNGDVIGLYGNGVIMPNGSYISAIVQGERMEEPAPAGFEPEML
Protocol: as §2

[7] = molecular target: T5, Genome polyprotein [1424-1463]/[1502-1685]; assay: Enzyme Inhibition Assay; conditions: pH 7.5; 37 °C
Protocol: as §1

T2 sequence (Q58HT7 1394-1440): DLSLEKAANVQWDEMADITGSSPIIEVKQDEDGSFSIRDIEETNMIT
T2 sequence (Q58HT7 1476-1660): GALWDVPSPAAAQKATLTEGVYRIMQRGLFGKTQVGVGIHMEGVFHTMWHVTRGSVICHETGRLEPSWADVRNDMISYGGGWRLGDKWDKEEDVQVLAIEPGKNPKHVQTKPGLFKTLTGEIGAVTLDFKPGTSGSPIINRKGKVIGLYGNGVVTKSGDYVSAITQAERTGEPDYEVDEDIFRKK
T1 sequence (P14340 1394-1440, looked up, stated change not applied): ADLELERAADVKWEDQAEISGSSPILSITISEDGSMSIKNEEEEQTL
T1 sequence (P27914 1066-1250, looked up, stated change not applied): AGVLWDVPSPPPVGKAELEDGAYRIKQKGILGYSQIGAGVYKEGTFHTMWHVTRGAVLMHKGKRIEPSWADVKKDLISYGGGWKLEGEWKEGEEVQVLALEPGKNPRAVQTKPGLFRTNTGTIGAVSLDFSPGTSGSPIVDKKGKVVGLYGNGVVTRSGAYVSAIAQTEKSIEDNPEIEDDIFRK
T3 sequence (P27915 1394-1440, stated change not applied): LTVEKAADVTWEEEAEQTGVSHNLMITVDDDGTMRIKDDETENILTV
T3 sequence (Q6YMS4 1476-1660, looked up, stated change not applied): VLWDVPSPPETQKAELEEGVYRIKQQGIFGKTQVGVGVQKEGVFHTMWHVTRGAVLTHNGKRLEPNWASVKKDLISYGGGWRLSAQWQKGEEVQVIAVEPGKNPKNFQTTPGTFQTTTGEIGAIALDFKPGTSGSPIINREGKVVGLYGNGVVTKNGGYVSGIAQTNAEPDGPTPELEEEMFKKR
T4 sequence (P17763 1476-1660, looked up, stated change not applied): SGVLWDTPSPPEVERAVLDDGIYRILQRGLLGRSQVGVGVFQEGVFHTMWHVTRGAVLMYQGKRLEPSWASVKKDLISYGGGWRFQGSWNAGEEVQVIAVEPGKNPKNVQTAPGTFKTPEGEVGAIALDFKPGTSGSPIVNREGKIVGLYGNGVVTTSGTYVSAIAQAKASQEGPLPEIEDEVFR
T4 sequence (P33478 1393-1439, looked up, stated change not applied): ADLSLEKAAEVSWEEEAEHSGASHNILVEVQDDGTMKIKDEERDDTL

Compound	IC50 [1] [µM]	IC50 [2] [µM]	IC50 [3] [µM]	IC50 [4] [µM]	IC50 [5] [µM]	Kd [5] [µM]	Kd [6] [µM]	IC50 [6] [µM]	IC50 [7] [µM]
CCCC[C@H](NC(=O)c1ccccc1)C(=O)N[C@@H](CCCCN)C(=O)N[C@@H](CCCNC(=N)N)C(=O)N[C@H](C=O)CCCNC(=N)N [Bz-Nle-Lys-Arg-Arg-H] (Bz-[Nle]KRR-aldehyde)	8.9	1.4	7.9	11.8	–	–	–	–	–
CC1CNC(c2ccc(Nc3nnc(Nc4ccc(C5=NC(C)CN5)cc4)c4ccccc34)cc2)=N1 (configuration not stated) [phthalazine-based compound, 1]	–	32.8	17.5	36.4	6	7.2	21	–	–
c1ccc(-c2ccc(Nc3nnc(Nc4ccc(C5=NCCN5)cc4)c4ccccc34)cc2)cc1 [phthalazine-based compound, 2]	–	2	1.6	2	2.3	–	–	3.6	–
c1ccc2c(Nc3ccc(C4=NC5CCCCC5N4)cc3)nnc(Nc3ccc(C4=NC5CCCCC5N4)cc3)c2c1 (configuration not stated) [phthalazine-based compound, 3]	–	13.6	8.5	10.7	1.1	7.7	90	22	–
c1ccc2c(Nc3ccc4c(c3)CNCC4)nnc(Nc3ccc(C4=NCCN4)cc3)c2c1 [phthalazine-based compound, 4]	–	64.8	100	233	27.4	22.9	4.6	–	–
NCc1ccc(Nc2nnc(Nc3ccc(C4=NCCN4)cc3)c3ccccc23)cc1 [phthalazine-based compound, 5]	–	8.2	8.7	12.3	5.8	18.6	100	–	–
c1ccc2c(Nc3ccc4c(c3)CCNC4)nnc(Nc3ccc(C4=NCCN4)cc3)c2c1 [phthalazine-based compound, 6]	–	43	86	170	55	54	7	6.2	–
COC(=O)c1ccc(-c2ccc(Nc3nnc(Nc4ccc(C5=NCCN5)cc4)c4ccccc34)cc2)cc1 [phthalazine-based compound, 7]	–	1.3	1	2.72	1.6	–	–	2.2	–
c1ccc2c(Nc3ccc(C4=NCCN4)cc3)nnc(Nc3ccc(C4=NCCN4)cc3)c2c1 [phthalazine-based compound, 8]	–	19.8	27.9	21.4	10.2	16.3	–	–	16
Nc1ccc2c(Nc3ccc(C4=NCCN4)cc3)nnc(Nc3ccc(C4=NCCN4)cc3)c2c1 [phthalazine-based compound, 9]	–	> 100	> 100	> 100	> 100	100	–	–	–
